Test results: patent publication US9000022B2 (Exelixis Patent Company LLC, priority 2005, dated 2015)

System: LXRα and/or LXRβ
Experiment: Co-transfection assay (LXRE luciferase reporter, CV-1 cells)
Assay type: cell-based, human
Settings: tested as described in Example 33; IC50 or EC50 for LXRα and/or LXRβ, isoform not specified; read-out: activity (IC50 or EC50 for LXR)
In short: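 CV-1 cells transiently co-transfected with full-length human LXRα or LXRβ plus RXRα, an LXRE×1-Tk-luciferase reporter and a β-galactosidase control. Compounds incubated 20 h at 37 °C (≤1% DMSO; screen at 10 μM final); luciferase read after lysis. EC50/IC50 from 8-point half-log curves (4 wells per point, ≥3 experiments); efficacy relative to a reference agonist high control and DMSO.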

| IC50 or EC50 (potency, activation or inhibition) [nM] | SMILES |
| --- | --- |
| < 1000 | CC(C)S(=O)(=O)c1cccc(-c2ccc(-n3cc(C(C)(C)O)nc3-c3ccccc3C(F)(F)F)cc2)c1 [Example 413] |
| 1000 to 10000 | CCS(=O)(=O)c1cccc(-c2ccc(-n3cc(C(C)(C)O)nc3-c3ccccc3Cl)cc2)c1 [Example 415, 2-{2-(2-chlorophenyl)-1-[3′-(ethylsulfonyl)biphenyl-4-yl]-1H-imidazol-4-yl}propan-2-ol] |
| 1000 to 10000 | CC(C)(O)c1cn(-c2ccc(-c3cccc(S(C)(=O)=O)c3)cc2)c(-c2c(F)cccc2Cl)n1 [Example 416, 2-{2-(2-chloro-6-fluorophenyl)-1-[3′-(methylsulfonyl)biphenyl-4-yl]-1H-imidazol-4-yl}propan-2-ol] |
| < 1000 | CC(C)(O)c1cn(-c2ccc(-c3cccc(S(C)(=O)=O)c3)cc2Cl)c(-c2ccccc2Cl)n1 [Example 417, 2-{1-[3-chloro-3′-(methyl-sulfonyl)biphenyl-4-yl]-2-(2-chlorophenyl)-1H-imidazol-4-yl}propan-2-ol] |
| < 1000 | Cc1cc(-c2cccc(S(C)(=O)=O)c2)ccc1-n1cc(C(C)(C)O)nc1-c1ccccc1Cl [Example 418, 2-{2-(2-chlorophenyl)-1-[3-methyl-3′-(methylsulfonyl)biphenyl-4-yl]-1H-imidazol-4-yl}propan-2-ol] |
| 1000 to 10000 | CCS(=O)(=O)c1cccc(-c2ccc(-n3cc(C(C)(C)O)nc3-c3c(F)cccc3F)cc2)c1 [Example 419, 2-{2-(2,6-difluorophenyl)-1-[3′-(ethylsulfonyl)biphenyl-4-yl]-1H-imidazol-4-yl}propan-2-ol] |
| 1000 to 10000 | CC(C)(O)c1cn(-c2ccc(-c3cccc(S(C)(=O)=O)c3)cn2)c(-c2ccccc2C(F)(F)F)n1 [Example 420, 2-(1-{5-[3-(methyl-sulfonyl)phenyl]pyridin-2-yl}-2-[2-(trifluoromethyl)phenyl]-1H-imidazol-4-yl)propan-2-ol] |
| 1000 to 10000 | CC(C)(O)c1cn(-c2ccc(-c3cccc(S(C)(=O)=O)c3)nc2)c(-c2ccccc2C(F)(F)F)n1 [Example 421, 2-(1-{6-[3-(methyl-sulfonyl)phenyl]pyridin-3-yl}-2-[2-(trifluoromethyl)phenyl]-1H-imidazol-4-yl)propan-2-ol] |
| < 1000 | CC(C)(O)c1cn(Cc2ccccc2Cl)c(-c2ccc(-c3cccc(S(C)(=O)=O)c3)cc2)n1 [Example 443, 2-(1-(2-chlorobenzyl)-2-(3′-(methylsulfonyl)biphenyl-4-yl)-1H-imidazol-4-yl)propan-2-ol] |
| < 1000 | CC(C)(O)c1cn(Cc2cccc(Cl)c2Cl)c(-c2ccc(-c3cccc(S(C)(=O)=O)c3)cc2)n1 [Example 444, 2-(1-(2,3-dichlorobenzyl)-2-(3′-(methylsulfonyl)biphenyl-4-yl)-1H-imidazol-4-yl)propan-2-ol] |
| < 1000 | CC(C)(O)c1nc(-c2ccc(-c3cccc(S(C)(=O)=O)c3)cc2Cl)n(-c2c(Cl)cccc2Cl)c1Cl [Example 445, 2-(5-chloro-2-(3-chloro-3′-(methylsulfonyl)biphenyl-4-yl)-1-(2,6-dichlorophenyl)-1H-imidazol-4-yl)propan-2-ol] |
| > 10000 | CON(C)C(=O)c1ccc(-c2ccc(-n3cc(C(C)(C)O)nc3-c3c(F)cccc3Cl)c(Cl)c2)cc1S(C)(=O)=O [Example 448, 3′-chloro-4′-(2-(2-chloro-6-fluorophenyl)-4-(2-hydroxypropan-2-yl)-1H-imidazol-1-yl)-N-methoxy-N-methyl-3-(methylsulfonyl)biphenyl-4-carboxamide] |
| < 1000 | CC(C)(O)c1cn(-c2ccc(-c3cccc(S(C)(=O)=O)c3)cc2F)c(Cc2cccc(Cl)c2Cl)n1 [Example 449, 2-(2-(2,3-dichlorobenzyl)-1-(3-fluoro-3′-(methylsulfonyl)biphenyl-4-yl)-1H-imidazol-4-yl)propan-2-ol] |
